Data from patent US20210253562A1, “ACYLSUFONAMIDE COMPOUNDS USEFUL AS EP3 RECEPTOR ANTAGONISTS” (Janssen Pharmaceutica NV, priority 2018, published 2021).
pIC50, pKi: −log10 of the molar value. Where two headings read alike, the source gives them in different places.

Experiments:
[1] = target: T1, CHO cells over-expressing the EP3 receptor (Homo sapiens, UniProt P43115); test: CHO cell cAMP assay; EP3 cAMP antagonist dose response (sulprostone reference), HTRF; assay type: cell-based; conditions: sulprostone 700 nM (EC80) and FSK 2 μM (EC70); read-out: CHO_cAMP IC50
T1 construct: expressed in transfected cells; host or cells: CHO cells
T1 sequence (P43115 1-390): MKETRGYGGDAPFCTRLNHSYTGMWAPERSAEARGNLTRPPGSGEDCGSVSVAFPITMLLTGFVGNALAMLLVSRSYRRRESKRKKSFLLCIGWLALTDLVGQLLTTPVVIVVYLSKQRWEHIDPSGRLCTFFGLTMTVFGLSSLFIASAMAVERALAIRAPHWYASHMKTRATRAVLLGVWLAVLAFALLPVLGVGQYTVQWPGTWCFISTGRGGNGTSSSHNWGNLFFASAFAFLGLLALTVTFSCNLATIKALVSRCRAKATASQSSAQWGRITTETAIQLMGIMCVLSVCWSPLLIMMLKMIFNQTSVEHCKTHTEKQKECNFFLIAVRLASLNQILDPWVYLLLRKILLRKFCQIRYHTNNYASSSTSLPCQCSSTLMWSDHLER
How it was run: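 EP3-overexpressing CHO cells pre-incubated with test compound, then stimulated 30 min at 37 °C with FSK (2 μM, EC70) plus sulprostone (700 nM, EC80); antagonism seen as restored cAMP. cAMP measured by HTRF 665/615 ratio, converted via on-plate standard curve. IC50 from Hill fit of 11-point dosing.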

[2] = target: T2, EP3 membrane (EP3 receptor) (Homo sapiens, UniProt P43115); test: [3H]-PGE2 binding; EP3 competition binding (SPA); conditions: for Ki: unit nM
T2 construct: purchased Millipore HTS092M
T2 sequence (P43115 1-390): T1 sequence (P43115 1-390)
How it was run: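 SPA competition at room temperature, 2 h: EP3 membranes 2 μg/well, 2 nM [3H]-PGE2, 0.1% DMSO, in Tris/MgCl2/EDTA buffer pH 7.4. Compounds in 1:3 serial dilution; scintillation read; Ki by one-site nonlinear fit.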

Row | Compound | pIC50 [1] | pKi [2] | Ki [2]
1 | O=C(NS(=O)(=O)c1ccc(Cl)cc1)OC/C=C1/c2c(cnn2Cc2ccc(Cl)cc2Cl)CCC1(F)F [Compound #82, (Z)-2-(1-(2,4-dichlorobenzyl)-6,6-difluoro-1,4,5,6-tetrahydro-7H-indazol-7-ylidene)ethyl ((4-chlorophenyl)sulfonyl)carbamate] | 5.59 | 6.97 | –
2 | COc1ccc(-n2ncc3c2/C(=C/CNC(=O)NS(=O)(=O)c2ccc(Cl)cc2)CCC3)cn1 [Compound #105, (E)-4-chloro-N-((2-(1-(6-methoxypyridin-3-yl)-1,4,5,6-tetrahydro-7H-indazol-7-ylidene)ethyl)carbamoyl)benzenesulfonamide] | 6.53 | 6.62 | –
3 | O=C(NC/C(F)=C1/c2c(cnn2Cc2ccc(Cl)cc2Cl)CCC1F)NS(=O)(=O)c1ccc(Cl)cc1 (stereo not drawn) [Compound #101, (E)-4-chloro-N-((2-(1-(2,4-dichlorobenzyl)-6-fluoro-1,4,5,6-tetrahydro-7H-indazol-7-ylidene)-2-fluoroethyl)carbamoyl)benzenesulfonamide] | 6.84 | 7.28 | –
4 | O=C(NC/C(F)=C1\CCCc2cnn(Cc3ccc(C(F)(F)F)cc3)c21)NS(=O)(=O)c1cc2ccccc2o1 [Compound #132, (Z)—N-((2-fluoro-2-(1-(4-(trifluoromethyl)benzyl)-1,4,5,6-tetrahydro-7H-indazol-7-ylidene)ethyl)carbamoyl)benzofuran-2-sulfonamide] | 5.41 | 6.46 | –
5 | O=C(NC/C(F)=C1\CCCc2cnn(-c3ccc4ccccc4c3)c21)NS(=O)(=O)c1ccc2c(c1)OCCO2 [Compound #114, (Z)—N-((2-fluoro-2-(1-(naphthalen-2-yl)-1,4,5,6-tetrahydro-7H-indazol-7-ylidene)ethyl)carbamoyl)-2,3-dihydrobenzo[b][1,4]dioxine-6-sulfonamide] | < 4.70 | 4.84 | –
6 | COc1ccccc1S(=O)(=O)NC(=O)NC/C=C1\CCCc2cnn(Cc3ccc(Cl)cc3Cl)c21 [Compound #39, (E)-N-((2-(1-(2,4-dichlorobenzyl)-1,4,5,6-tetrahydro-7H-indazol-7-ylidene)ethyl)carbamoyl)-2-methoxybenzenesulfonamide] | 6.94 | 7.21 | –
7 | O=C(NC/C=C1\CCCc2cn(Cc3ccc4ccccc4c3)nc21)NS(=O)(=O)c1cc(Cl)c(Cl)s1 [Compound #87, (E)-4,5-dichloro-N-((2-(2-(naphthalen-2-ylmethyl)-2,4,5,6-tetrahydro-7H-indazol-7-ylidene)ethyl)carbamoyl)thiophene-2-sulfonamide] | 6.36 | 6.96 | –
8 | O=C(NC/C(F)=C1\COCc2cnn(Cc3ccc(Cl)cc3Cl)c21)NS(=O)(=O)c1ccc(Cl)cc1 [Compound #83, (E)-4-chloro-N-((2-(1-(2,4-dichlorobenzyl)-1,4-dihydropyrano[4,3-c]pyrazol-7(6H)-ylidene)-2-fluoroethyl)carbamoyl)benzenesulfonamide] | 6.58 | 7.01 | –
9 | O=C(C/C=C1\CCCc2cnn(Cc3ccc(Cl)cc3Cl)c21)NS(=O)(=O)c1cccs1 [Compound #20, (E)-3-(1-(2,4-dichlorobenzyl)-1,4,5,6-tetrahydro-7H-indazol-7-ylidene)-N-(thiophen-2-ylsulfonyl)propenamide] | 6.00 | 6.55 | –
10 | O=C(NS(=O)(=O)c1ccc(Cl)cc1)OC/C=C1\CC(F)(F)Cc2cnn(Cc3ccc(Cl)cc3Cl)c21 [Compound #37, (E)-2-(1-(2,4-dichlorobenzyl)-5,5-difluoro-1,4,5,6-tetrahydro-7H-indazol-7-ylidene)ethyl ((4-chlorophenyl)sulfonyl)carbamate] | 7.06 | 6.97 | –
11 | O=C(NC/C(F)=C1\CCCc2onc(-c3ccc(Cl)cc3)c21)NS(=O)(=O)c1ccc(Cl)cc1 [Compound #97, (Z)-4-chloro-N-((2-(3-(4-chlorophenyl)-6,7-dihydrobenzo[d]isoxazol-4(5H)-ylidene)-2-fluoroethyl)carbamoyl)benzenesulfonamide] | < 4.70 | 5.31 | –
12 | COc1ccc(S(=O)(=O)NC(=O)NC/C=C2\COCc3cnn(Cc4ccc(Cl)cc4Cl)c32)cc1 [Compound #62, (Z)—N-((2-(1-(2,4-dichlorobenzyl)-1,4-dihydropyrano[4,3-c]pyrazol-7(6H)-ylidene)ethyl)carbamoyl)-4-methoxybenzenesulfonamide] | 6.61 | 7.20 | –
13 | COc1ccc(F)cc1S(=O)(=O)NC(=O)NC/C(F)=C1\CCCc2cnn(-c3ccc4ccccc4c3)c21 [Compound #113, (Z)-5-fluoro-N-((2-fluoro-2-(1-(naphthalen-2-yl)-1,4,5,6-tetrahydro-7H-indazol-7-ylidene)ethyl)carbamoyl)-2-methoxybenzenesulfonamide] | 5.16 | 5.39 | –

Stronger by pIC50 [1], values ahead:

Row | pIC50 [1] | pKi [2] | Ki [2] | Compound
14 | 7.32 | 7.72 | – | O=C(NC/C=C1\CCCc2cnn(Cc3ccc(Cl)cc3Cl)c21)NS(=O)(=O)c1cnc2ccccc2c1 [Compound #12, (E)-N-((2-(1-(2,4-dichlorobenzyl)-1,4,5,6-tetrahydro-7H-indazol-7-ylidene)ethyl)carbamoyl)quinoline-3-sulfonamide]
15 | 7.52 | 9.00 | – | CS(=O)(=O)c1ccc(-n2ncc3c2/C(=C/CNC(=O)NS(=O)(=O)c2cc(Cl)c(Cl)s2)CCC3)cc1 [Compound #126, (E)-4,5-dichloro-N-((2-(1-(4-(methylsulfonyl)phenyl)-1,4,5,6-tetrahydro-7H-indazol-7-ylidene)ethyl)carbamoyl)thiophene-2-sulfonamide]
16 | 7.92 | 8.30 | – | CN(C/C(F)=C1\CCCc2cnn(Cc3ccc(Cl)cc3Cl)c21)C(=O)NS(=O)(=O)c1cc(Cl)c(Cl)s1 [Compound #59, (Z)-4,5-dichloro-N-((2-(1-(2,4-dichlorobenzyl)-1,4,5,6-tetrahydro-7H-indazol-7-ylidene)-2-fluoroethyl)(methyl)carbamoyl)thiophene-2-sulfonamide]
17 | 7.96 | – | 0.5 nM | O=C(NC/C=C1\CCCc2cnn(Cc3ccc(Cl)cc3Cl)c21)NS(=O)(=O)c1cc(Cl)c(Cl)s1 [Compound #7, (E)-4,5-dichloro-N-((2-(1-(2,4-dichlorobenzyl)-1,4,5,6-tetrahydro-7H-indazol-7-ylidene)ethyl)carbamoyl)thiophene-2-sulfonamide]
18 | 8.05 | 8.22 | – | COc1ccc(Br)cc1S(=O)(=O)NC(=O)CC/C=C1\CCCc2cnn(Cc3ccc(Cl)cc3Cl)c21 [Compound #41, (E)-N-((5-bromo-2-methoxyphenyl)sulfonyl)-4-(1-(2,4-dichlorobenzyl)-1,4,5,6-tetrahydro-7H-indazol-7-ylidene)butanamide]
19 | 8.05 | 9.00 | – | O=C(NC/C=C1\CCCc2cnn(-c3ccc(-c4ccccc4)cc3)c21)NS(=O)(=O)c1cc(Cl)c(Cl)s1 [Compound #99, (E)-N-((2-(1-([1,1′-biphenyl]-4-yl)-1,4,5,6-tetrahydro-7H-indazol-7-ylidene)ethyl)carbamoyl)-4,5-dichlorothiophene-2-sulfonamide]
20 | 8.10 | 8.05 | – | Cn1cc(S(=O)(=O)NC(=O)NC/C=C2\CCCc3cnn(Cc4ccc(Cl)cc4Cl)c32)cn1 [Compound #152, (E)-N-((2-(1-(2,4-dichlorobenzyl)-1,4,5,6-tetrahydro-7H-indazol-7-idene)ethyl)carbamoyl)-1-methyl-1H-pyrazole-4-sulfonamide]
21 | 8.15 | 8.52 | – | O=C(NC/C(F)=C1/c2c(cnn2Cc2ccc(Cl)cc2Cl)CCC1F)NS(=O)(=O)c1cc(Cl)c(Cl)s1 (stereo not drawn) [Compound #100, (E)-4,5-dichloro-N-((2-(1-(2,4-dichlorobenzyl)-6-fluoro-1,4,5,6-tetrahydro-7H-indazol-7-ylidene)-2-fluoroethyl)carbamoyl)thiophene-2-sulfonamide]
22 | 8.22 | 8.52 | – | COc1ccc(Br)cc1S(=O)(=O)NC(=O)NC/C=C1\CCCc2cnn(Cc3ccc(Cl)cc3Cl)c21 [Compound #42, (E)-5-bromo-N-((2-(1-(2,4-dichlorobenzyl)-1,4,5,6-tetrahydro-7H-indazol-7-ylidene)ethyl)carbamoyl)-2-methoxybenzenesulfonamide]
23 | 8.52 | 9.00 | – | O=C(CC/C=C1\CCCc2cnn(-c3cccc(-c4ccccc4)c3)c21)NS(=O)(=O)c1cc(Cl)c(Cl)s1 [Compound #52, (E)-4-(1-([1,1′-biphenyl]-3-yl)-1,4,5,6-tetrahydro-7H-indazol-7-ylidene)-N-((4,5-dichlorothiophen-2-yl)sulfonyl)butanamide]
24 | 9.00 | – | 0.4 nM | O=C(NC/C=C1\COCc2cnn(Cc3ccc(Cl)cc3Cl)c21)NS(=O)(=O)c1cc(Cl)c(Cl)s1 [Compound #49, (Z)-4,5-dichloro-N-((2-(1-(2,4-dichlorobenzyl)-1,4-dihydropyrano[4,3-c]pyrazol-7(6H)-ylidene)ethyl)carbamoyl)thiophene-2-sulfonamide]
